In PMC7982320 (Pharmacology Research & Perspectives, 2021):
Values joined by “and” are separate entries in the source; they are usually repeats but may differ in a detail not shown here. Equal values may be shown once. “Also recorded” adds a separate entry of the source. Read-outs that look alike come from different tables or passages of the source.

Legend:
CYP3A4 = CYP3A4 (Homo sapiens, UniProt P08684); assay: CYP inhibition in pooled human liver microsomes, midazolam or testosterone probe; assay type: in vitro ADME; settings: for IC50: read-out: IC50, No preincubation, pooled HLMs, n = 3
CYP2D6 = CYP2D6 (Homo sapiens, UniProt P10635); assay: CYP inhibition in pooled human liver microsomes, dextromethorphan probe; assay type: in vitro ADME; settings: read-out: IC50, No preincubation; CYP2D6, pooled HLMs, n = 3
[1] = tested on: CYP isoforms (1A2, 2B6, 2C8, 2C9, 2C19, 2D6, 3A4); assay: Time‐dependent and mechanism‐based CYP inhibition; assay type: in vitro ADME, human; settings: 30 min preincubation in absence and presence of NADPH
human OAT1 = molecular target: T1, human OAT1 (Homo sapiens, UniProt Q4U2R8); assay: Transporter inhibition, uptake assay; assay type: in vitro ADME
T1 sequence (Q4U2R8 1-563): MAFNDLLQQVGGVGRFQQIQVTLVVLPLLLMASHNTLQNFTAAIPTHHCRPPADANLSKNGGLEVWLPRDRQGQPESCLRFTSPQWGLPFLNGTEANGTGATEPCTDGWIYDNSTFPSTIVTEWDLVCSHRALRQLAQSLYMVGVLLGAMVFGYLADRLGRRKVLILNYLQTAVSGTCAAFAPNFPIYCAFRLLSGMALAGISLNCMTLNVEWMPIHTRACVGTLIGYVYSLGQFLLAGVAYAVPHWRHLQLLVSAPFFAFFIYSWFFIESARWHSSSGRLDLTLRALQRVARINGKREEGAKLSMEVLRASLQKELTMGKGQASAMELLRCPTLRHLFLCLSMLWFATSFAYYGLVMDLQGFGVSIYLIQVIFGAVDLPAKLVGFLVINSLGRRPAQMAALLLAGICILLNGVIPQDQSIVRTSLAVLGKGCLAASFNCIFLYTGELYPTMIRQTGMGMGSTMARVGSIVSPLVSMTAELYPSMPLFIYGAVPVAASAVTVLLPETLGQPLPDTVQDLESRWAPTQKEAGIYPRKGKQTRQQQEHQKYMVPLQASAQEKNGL

[2] = combined DMD patient populations, DFZ 0.9 mg/kg/day; ref PTC internal data; cited from earlier work
CYP2B6 = assay: in vitro; assay type: in vitro ADME, human; settings: 48 h
[3] = healthy male subjects, single oral dose of 60 mg 14C‐DFZ; cited from earlier work
human MDR1 = human MDR1 (Homo sapiens, UniProt P08183); assay: Transporter inhibition, vesicular transport assay; assay type: in vitro ADME
human MATE2‐K = human MATE2‐K (Homo sapiens, UniProt Q86VL8); assay: Transporter inhibition, uptake assay; assay type: in vitro ADME
human OCT1 = human OCT1 (Homo sapiens, UniProt O15245); assay: Transporter inhibition, uptake assay; assay type: in vitro ADME
CYP2C9 = CYP2C9 (Homo sapiens, UniProt P11712); assay: CYP inhibition in pooled human liver microsomes, diclofenac probe; assay type: in vitro ADME; settings: read-out: IC50, No preincubation; CYP2C9, pooled HLMs, n = 3
CYP2C8 = CYP2C8 (Homo sapiens, UniProt P10632); assay: CYP inhibition in pooled human liver microsomes, paclitaxel probe; assay type: in vitro ADME; settings: read-out: IC50, No preincubation; CYP2C8, pooled HLMs, n = 3
CYP2C19 = CYP2C19 (Homo sapiens, UniProt P33261); assay: CYP inhibition in pooled human liver microsomes, S-mephenytoin probe; assay type: in vitro ADME
Sequence of CYP2C19 (P33261 whole entry): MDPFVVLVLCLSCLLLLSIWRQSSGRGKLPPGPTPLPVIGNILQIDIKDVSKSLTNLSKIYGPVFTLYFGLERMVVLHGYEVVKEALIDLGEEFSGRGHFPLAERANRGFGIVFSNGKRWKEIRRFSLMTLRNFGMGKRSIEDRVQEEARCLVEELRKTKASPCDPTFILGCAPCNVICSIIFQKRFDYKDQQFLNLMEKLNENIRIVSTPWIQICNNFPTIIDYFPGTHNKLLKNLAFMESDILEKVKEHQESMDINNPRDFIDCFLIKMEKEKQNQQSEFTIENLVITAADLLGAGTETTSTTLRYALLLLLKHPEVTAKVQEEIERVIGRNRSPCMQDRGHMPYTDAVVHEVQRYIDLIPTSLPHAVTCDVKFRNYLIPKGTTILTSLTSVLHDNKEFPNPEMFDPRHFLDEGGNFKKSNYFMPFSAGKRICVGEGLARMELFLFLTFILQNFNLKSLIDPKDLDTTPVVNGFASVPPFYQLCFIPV

Sequence of CYP3A4 (P08684 whole entry): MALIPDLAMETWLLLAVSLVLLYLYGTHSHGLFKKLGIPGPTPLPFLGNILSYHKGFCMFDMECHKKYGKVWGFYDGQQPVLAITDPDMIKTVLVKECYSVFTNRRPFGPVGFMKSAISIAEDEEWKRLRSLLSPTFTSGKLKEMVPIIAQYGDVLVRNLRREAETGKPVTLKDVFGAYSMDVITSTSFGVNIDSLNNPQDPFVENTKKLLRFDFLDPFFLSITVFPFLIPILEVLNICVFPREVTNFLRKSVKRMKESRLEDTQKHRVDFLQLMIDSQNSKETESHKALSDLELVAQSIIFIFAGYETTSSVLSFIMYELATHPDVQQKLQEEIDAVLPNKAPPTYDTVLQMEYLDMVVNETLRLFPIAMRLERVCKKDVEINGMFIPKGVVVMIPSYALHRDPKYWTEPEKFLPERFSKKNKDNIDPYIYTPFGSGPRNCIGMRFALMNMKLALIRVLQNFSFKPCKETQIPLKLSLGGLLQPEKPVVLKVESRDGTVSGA
Sequence of human OCT1 (O15245 whole entry): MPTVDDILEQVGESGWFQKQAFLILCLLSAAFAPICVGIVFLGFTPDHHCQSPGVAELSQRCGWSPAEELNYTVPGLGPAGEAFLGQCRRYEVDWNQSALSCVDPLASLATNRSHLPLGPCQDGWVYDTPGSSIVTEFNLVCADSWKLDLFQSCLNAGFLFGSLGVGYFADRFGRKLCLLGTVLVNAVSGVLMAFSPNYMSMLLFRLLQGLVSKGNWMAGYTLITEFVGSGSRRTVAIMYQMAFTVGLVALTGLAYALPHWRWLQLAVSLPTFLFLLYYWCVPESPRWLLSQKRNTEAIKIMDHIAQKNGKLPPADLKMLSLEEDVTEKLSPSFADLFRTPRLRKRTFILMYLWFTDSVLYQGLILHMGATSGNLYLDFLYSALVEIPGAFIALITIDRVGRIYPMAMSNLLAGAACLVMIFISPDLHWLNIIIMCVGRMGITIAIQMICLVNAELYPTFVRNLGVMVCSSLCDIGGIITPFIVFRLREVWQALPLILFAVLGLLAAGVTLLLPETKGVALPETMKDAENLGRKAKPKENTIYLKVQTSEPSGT
Sequence of human MDR1 (P08183 whole entry): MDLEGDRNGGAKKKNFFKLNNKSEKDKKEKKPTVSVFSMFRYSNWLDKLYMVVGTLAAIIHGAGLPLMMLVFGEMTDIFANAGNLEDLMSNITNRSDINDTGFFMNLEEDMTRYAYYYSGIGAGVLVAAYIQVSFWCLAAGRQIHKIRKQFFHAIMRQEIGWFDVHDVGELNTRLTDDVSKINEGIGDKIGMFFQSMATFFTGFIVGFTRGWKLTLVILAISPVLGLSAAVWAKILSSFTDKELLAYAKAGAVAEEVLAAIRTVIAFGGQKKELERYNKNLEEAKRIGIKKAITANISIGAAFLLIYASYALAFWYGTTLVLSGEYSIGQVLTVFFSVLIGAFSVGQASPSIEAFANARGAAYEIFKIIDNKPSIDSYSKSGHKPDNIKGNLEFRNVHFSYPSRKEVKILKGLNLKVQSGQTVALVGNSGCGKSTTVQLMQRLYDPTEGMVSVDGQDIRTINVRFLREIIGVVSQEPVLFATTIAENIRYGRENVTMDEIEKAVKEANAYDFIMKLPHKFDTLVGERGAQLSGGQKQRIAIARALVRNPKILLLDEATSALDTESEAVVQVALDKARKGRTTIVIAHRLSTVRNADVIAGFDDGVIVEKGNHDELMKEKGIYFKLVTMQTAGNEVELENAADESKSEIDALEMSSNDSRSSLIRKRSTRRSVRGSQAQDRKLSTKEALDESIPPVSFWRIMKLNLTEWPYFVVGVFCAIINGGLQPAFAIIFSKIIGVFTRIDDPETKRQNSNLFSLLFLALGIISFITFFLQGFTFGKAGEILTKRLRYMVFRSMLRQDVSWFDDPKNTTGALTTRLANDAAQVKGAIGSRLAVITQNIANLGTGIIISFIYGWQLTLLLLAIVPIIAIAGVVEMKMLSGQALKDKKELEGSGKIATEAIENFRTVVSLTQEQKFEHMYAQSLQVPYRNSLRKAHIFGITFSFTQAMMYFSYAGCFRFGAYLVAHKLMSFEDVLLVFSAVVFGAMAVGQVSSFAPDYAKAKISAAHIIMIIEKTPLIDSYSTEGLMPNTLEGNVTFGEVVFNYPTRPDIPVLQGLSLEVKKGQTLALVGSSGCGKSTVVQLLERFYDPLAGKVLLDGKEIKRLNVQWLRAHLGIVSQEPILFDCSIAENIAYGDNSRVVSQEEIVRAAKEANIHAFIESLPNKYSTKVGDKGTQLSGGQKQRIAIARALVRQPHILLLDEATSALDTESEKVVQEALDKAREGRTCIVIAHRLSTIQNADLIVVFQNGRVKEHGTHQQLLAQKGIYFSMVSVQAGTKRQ
Sequence of human MATE2‐K (Q86VL8 1-566 isoform Q86VL8-3): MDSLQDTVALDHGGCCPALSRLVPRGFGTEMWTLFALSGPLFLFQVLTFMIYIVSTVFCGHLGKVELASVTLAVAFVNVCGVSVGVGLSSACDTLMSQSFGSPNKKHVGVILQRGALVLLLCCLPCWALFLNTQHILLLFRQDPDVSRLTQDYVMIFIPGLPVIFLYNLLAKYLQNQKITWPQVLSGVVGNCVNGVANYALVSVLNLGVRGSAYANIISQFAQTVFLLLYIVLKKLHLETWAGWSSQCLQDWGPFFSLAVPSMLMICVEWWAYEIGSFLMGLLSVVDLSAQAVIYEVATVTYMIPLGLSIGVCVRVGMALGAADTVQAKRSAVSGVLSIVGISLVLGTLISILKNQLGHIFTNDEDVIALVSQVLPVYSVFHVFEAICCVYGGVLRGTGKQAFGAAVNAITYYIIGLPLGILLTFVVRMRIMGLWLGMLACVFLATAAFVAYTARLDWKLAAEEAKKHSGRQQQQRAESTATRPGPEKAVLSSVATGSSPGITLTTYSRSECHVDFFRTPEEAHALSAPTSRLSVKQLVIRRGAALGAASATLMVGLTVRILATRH
Sequence of CYP2C8 (P10632 whole entry): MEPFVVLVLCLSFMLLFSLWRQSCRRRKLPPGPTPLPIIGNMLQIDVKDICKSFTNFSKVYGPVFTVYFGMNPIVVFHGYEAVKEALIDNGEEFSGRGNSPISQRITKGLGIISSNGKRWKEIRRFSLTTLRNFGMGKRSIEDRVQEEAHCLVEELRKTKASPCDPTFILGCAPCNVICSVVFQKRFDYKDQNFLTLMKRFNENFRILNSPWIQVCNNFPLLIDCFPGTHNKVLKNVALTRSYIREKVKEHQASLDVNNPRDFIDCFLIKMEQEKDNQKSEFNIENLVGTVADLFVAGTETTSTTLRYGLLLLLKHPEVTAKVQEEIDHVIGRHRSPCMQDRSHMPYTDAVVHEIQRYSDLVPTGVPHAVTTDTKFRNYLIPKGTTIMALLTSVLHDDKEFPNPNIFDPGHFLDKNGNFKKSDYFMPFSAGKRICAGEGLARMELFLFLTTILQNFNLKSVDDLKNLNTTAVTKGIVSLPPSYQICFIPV
Sequence of CYP2C9 (P11712 whole entry): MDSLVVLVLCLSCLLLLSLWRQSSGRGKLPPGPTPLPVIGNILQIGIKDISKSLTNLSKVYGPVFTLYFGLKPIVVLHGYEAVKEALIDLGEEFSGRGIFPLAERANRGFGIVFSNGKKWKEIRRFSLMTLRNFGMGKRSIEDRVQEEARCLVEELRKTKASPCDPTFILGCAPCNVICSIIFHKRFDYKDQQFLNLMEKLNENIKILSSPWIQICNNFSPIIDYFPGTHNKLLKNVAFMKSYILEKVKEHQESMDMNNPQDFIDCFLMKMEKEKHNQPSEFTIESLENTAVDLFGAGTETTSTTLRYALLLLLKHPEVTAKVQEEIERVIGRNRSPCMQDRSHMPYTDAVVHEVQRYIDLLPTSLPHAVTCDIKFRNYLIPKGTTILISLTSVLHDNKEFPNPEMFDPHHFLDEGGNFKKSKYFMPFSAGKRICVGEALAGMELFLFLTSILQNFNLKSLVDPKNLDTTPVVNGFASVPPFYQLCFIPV
Sequence of CYP2D6 (P10635 whole entry, canonical isoform): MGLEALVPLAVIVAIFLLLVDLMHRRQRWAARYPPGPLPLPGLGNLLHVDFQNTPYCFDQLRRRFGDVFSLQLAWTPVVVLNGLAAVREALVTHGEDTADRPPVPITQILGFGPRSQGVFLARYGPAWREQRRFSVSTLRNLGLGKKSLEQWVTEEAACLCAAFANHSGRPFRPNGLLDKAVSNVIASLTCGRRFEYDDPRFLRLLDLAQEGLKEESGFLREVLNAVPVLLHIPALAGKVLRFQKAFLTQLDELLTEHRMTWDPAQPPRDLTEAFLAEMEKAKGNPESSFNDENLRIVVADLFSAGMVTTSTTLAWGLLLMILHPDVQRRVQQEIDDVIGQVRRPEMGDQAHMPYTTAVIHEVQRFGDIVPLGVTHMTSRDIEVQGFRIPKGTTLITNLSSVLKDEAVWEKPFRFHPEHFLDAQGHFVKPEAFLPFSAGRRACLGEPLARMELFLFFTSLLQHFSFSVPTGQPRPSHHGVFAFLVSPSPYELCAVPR

CC1=N[C@]2(C(=O)CO)[C@@H](C[C@H]3[C@@H]4C[C@@H](O)C5=CC(=O)C=C[C@]5(C)[C@H]4[C@@H](O)C[C@@]32C)O1 [6β‐OH‐21‐desDFZ, 6β‐Hydroxy‐21‐desacetyl deflazacort]
estimated plasma Cmax/IC50 ratio (CYP3A4; CYP3A4, Cmax 0.34 µM, assumed 100% free): 0.01 | IC50 (CYP3A4; CYP3A4 (Midazolam)): ~35 µM and ≥ 20 µM | IC50 (CYP3A4; CYP3A4 (Midazolam), listed as 6β‐hydroxy‐21‐desacetyl deflazacort): 35 µM | IC50 (CYP3A4; CYP3A4 (Testosterone)): > 50 µM | IC50 (CYP2D6): > 50 µM | time‐dependent or mechanism‐based inhibition (IC50 shift) [1]: neither time‐dependent nor metabolism‐based; also recorded: did not appear to be a time‐dependent or mechanism‐based inhibitor | inhibitory interaction with transporter (human OAT1; OAT1, up to 50 µM): did not show interaction; also recorded: no inhibitory interaction | Maximum inhibition at 50 µM (human OAT1; OAT1 UPT, n = 3): <20 % of control | plasma Cmax at steady state, mean value [2]: 142 ng/mL | CYP2B6 enzyme activity fold induction (CYP2B6; donor one, 0.002 µM): 0.921 fold | CYP2B6 mRNA fold induction (CYP2B6; donor one, 0.002 µM): 0.680 fold | CYP2B6 enzyme activity fold induction (CYP2B6; donor one, 0.01 µM): 0.826 fold | CYP2B6 mRNA fold induction (CYP2B6; donor one, 0.01 µM): 0.750 fold | CYP2B6 enzyme activity fold induction (CYP2B6; donor one, 0.05 µM): 0.767 fold | CYP2B6 mRNA fold induction (CYP2B6; donor one, 0.05 µM): 0.736 fold | CYP2B6 enzyme activity fold induction (CYP2B6; donor one, 0.25 µM): 0.752 fold | CYP2B6 mRNA fold induction (CYP2B6; donor one, 0.25 µM): 0.794 fold | CYP2B6 enzyme activity fold induction (CYP2B6; donor one, 5 µM): 0.832 fold | CYP2B6 mRNA fold induction (CYP2B6; donor one, 5 µM): 0.616 fold | CYP2B6 enzyme activity fold induction (CYP2B6; donor one, 10 µM): 0.814 fold | CYP2B6 mRNA fold induction (CYP2B6; donor one, 10 µM): 0.663 fold | CYP2B6 enzyme activity fold induction (CYP2B6; donor one, 20 µM): 0.896 fold | CYP2B6 mRNA fold induction (CYP2B6; donor one, 20 µM): 0.756 fold | CYP2B6 enzyme activity fold induction (CYP2B6; donor three, 0.002 µM): 0.836 fold | CYP2B6 mRNA fold induction (CYP2B6; donor three, 0.002 µM): 0.704 fold | CYP2B6 enzyme activity fold induction (CYP2B6; donor three, 0.01 µM): 0.829 fold | CYP2B6 mRNA fold induction (CYP2B6; donor three, 0.01 µM): 0.745 fold | CYP2B6 enzyme activity fold induction (CYP2B6; donor three, 0.05 µM): 0.829 fold | CYP2B6 mRNA fold induction (CYP2B6; donor three, 0.05 µM): 0.721 fold | CYP2B6 enzyme activity fold induction (CYP2B6; donor three, 0.25 µM): 0.810 fold | CYP2B6 mRNA fold induction (CYP2B6; donor three, 0.25 µM): 0.726 fold | CYP2B6 enzyme activity fold induction (CYP2B6; donor three, 5 µM): 1.01 fold | CYP2B6 mRNA fold induction (CYP2B6; donor three, 5 µM): 0.791 fold | CYP2B6 enzyme activity fold induction (CYP2B6; donor three, 10 µM): 1.13 fold | CYP2B6 mRNA fold induction (CYP2B6; donor three, 10 µM): 0.806 fold | CYP2B6 enzyme activity fold induction (CYP2B6; donor three, 20 µM): 1.08 fold | CYP2B6 mRNA fold induction (CYP2B6; donor three, 20 µM): 0.840 fold | CYP2B6 enzyme activity fold induction (CYP2B6; donor two, 0.002 µM): 0.960 fold | CYP2B6 mRNA fold induction (CYP2B6; donor two, 0.002 µM): 0.643 fold | CYP2B6 enzyme activity fold induction (CYP2B6; donor two, 0.01 µM): 0.895 fold | CYP2B6 mRNA fold induction (CYP2B6; donor two, 0.01 µM): 0.522 fold | CYP2B6 enzyme activity fold induction (CYP2B6; donor two, 0.05 µM): 0.944 fold | CYP2B6 mRNA fold induction (CYP2B6; donor two, 0.05 µM): 0.571 fold | CYP2B6 enzyme activity fold induction (CYP2B6; donor two, 0.25 µM): 0.963 fold | CYP2B6 mRNA fold induction (CYP2B6; donor two, 0.25 µM): 0.622 fold | CYP2B6 enzyme activity fold induction (CYP2B6; donor two, 5 µM): 1.22 fold | CYP2B6 mRNA fold induction (CYP2B6; donor two, 5 µM): 0.515 fold | CYP2B6 enzyme activity fold induction (CYP2B6; donor two, 10 µM): 1.20 fold | CYP2B6 mRNA fold induction (CYP2B6; donor two, 10 µM): 0.596 fold | CYP2B6 enzyme activity fold induction (CYP2B6; donor two, 20 µM): 1.40 fold | CYP2B6 mRNA fold induction (CYP2B6; donor two, 20 µM): 0.809 fold | induction of CYP2B6 (mRNA or enzyme activity), conclusion (CYP2B6; human hepatocytes, three donors): no meaningful concentration‐dependent induction; also recorded: did not appear to be an inducer; also recorded: did not induce | share of 0–24 h plasma levels of total radioactivity [3]: 25% | estimated plasma Cmax/IC50 ratio (human MDR1; MDR1, Cmax 0.34 µM, assumed 100% free): 0.017 | Maximum inhibition at 50 µM (human MDR1; MDR1 VT, n = 3): 78 % of control | Maximum inhibition at 50 µM (human MATE2‐K; MATE2‐K UPT, n = 3): 26 % of control | inhibitory interaction with transporter (human MATE2‐K; MATE2‐K, up to 50 µM): no inhibitory interaction | inhibitory interaction with transporter (human OCT1; OCT1, up to 50 µM): no inhibitory interaction | Maximum inhibition at 50 µM (human OCT1; OCT1 UPT, n = 3): 23 % of control | IC50 (CYP2C9): > 50 µM | IC50 (CYP2C8): > 50 µM | estimated plasma Cmax/IC50 ratio (CYP2C19; CYP2C19, Cmax 0.34 µM, assumed 100% free): 0.007 | IC50 (CYP2C19; read-out: IC50, No preincubation, CYP2C19, pooled HLMs, n = 3): ~50 µM
